From PubChem BioAssay AID256 (DTP/NCI, 2004)
Toxic doses and inconclusive results are not listed. How the source made its calls: active means survival T/C of 150% or more; inactive means T/C below 125% in these data.

System: CD2F1 mice, L1210 leukemia ip, survival T/C
Assay: NCI In Vivo Anticancer Drug Screen. Data for tumor model L1210 Leukemia (intraperitoneal) in CD2F1 (CDF1) mice
Settings: endpoint: mean survival time, higher = longer survival
Procedure, shortened: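 Read-out first: treated-group measurement over vehicle-control measurement, expressed as a ratio. Animals bore a transplanted tumor line and were dosed with compound or vehicle.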

[1] = dose: 100.0 mg/kg/injection, schedule: Q04DX003 (ip), vehicle: saline with Tween-80
[2] = dose: 200.0 mg/kg/injection, schedule: Q04DX003 (ip), vehicle: saline with Tween-80
[3] = dose: 400.0 mg/kg/injection, schedule: Q04DX003 (ip), vehicle: saline with Tween-80
[4] = dose: 100.0 mg/kg/injection, schedule: Q01DX001 (ip), vehicle: saline with Tween-80
[5] = dose: 200.0 mg/kg/injection, schedule: Q01DX001 (ip), vehicle: saline with Tween-80
[6] = dose: 400.0 mg/kg/injection, schedule: Q01DX001 (ip), vehicle: saline with Tween-80
[7] = dose: 100.0 mg/kg/injection, schedule: Q01DX001 (ip), vehicle: saline
[8] = dose: 100.0 mg/kg/injection, schedule: Q01DX009 (ip), vehicle: saline with Tween-80
[9] = dose: 200.0 mg/kg/injection, schedule: Q01DX009 (ip), vehicle: saline with Tween-80
[10] = dose: 400.0 mg/kg/injection, schedule: Q01DX009 (ip), vehicle: saline with Tween-80

Measured: T/C

O=C(Nc1cccc([N+](=O)[O-])c1)c1cc2ccccc2cc1O
inactive: dose: 100.0 mg/kg/injection, schedule: Q01DX009 (ip), vehicle: saline 101 % of control | [1] 95 % of control | dose: 200.0 mg/kg/injection, schedule: Q01DX009 (ip), vehicle: saline 97 % of control | [2] 95 % of control | dose: 400.0 mg/kg/injection, schedule: Q01DX009 (ip), vehicle: saline 98 % of control | [3] 87 % of control

COC1CC(C)OC(OC2C(C)/C=C/C(=O)OC(C)C(COC3OC(C)C(O)C(OC)C3OC)C3OC3/C=C/C(=O)C(C)(O)CC2C)C1O (stereo unspecified)
inactive: dose: 125.0 mg/kg/injection, schedule: Q01DX001 (ip), vehicle: saline sonified 100 % of control | dose: 250.0 mg/kg/injection, schedule: Q01DX001 (ip), vehicle: saline sonified 101 % of control | dose: 500.0 mg/kg/injection, schedule: Q01DX001 (ip), vehicle: saline sonified 95 % of control

NC(=S)N/N=C\c1nccc2c(C(F)(F)F)cccc12
inactive: dose: 100.0 mg/kg/injection, schedule: Q04DX002 (ip), vehicle: saline with Tween-80 124 % of control | dose: 200.0 mg/kg/injection, schedule: Q04DX002 (ip), vehicle: saline with Tween-80 89 % of control

CC1C(N2CCCCC2)CS1(=O)=O (stereo unspecified)
inactive: dose: 25.0 mg/kg/injection, schedule: Q04DX002 (ip), vehicle: saline 104 % of control | dose: 50.0 mg/kg/injection, schedule: Q04DX002 (ip), vehicle: saline 101 % of control | dose: 100.0 mg/kg/injection, schedule: Q04DX002 (ip), vehicle: saline 108 % of control

CC1CN(Cc2ccccc2)C1
inactive: dose: 12.5 mg/kg/injection, schedule: Q01DX001 (ip), vehicle: acetone 86 % of control | dose: 25.0 mg/kg/injection, schedule: Q01DX001 (ip), vehicle: acetone 96 % of control | dose: 50.0 mg/kg/injection, schedule: Q01DX001 (ip), vehicle: acetone 94 % of control

COc1ccc(/C=C2\Oc3cc(O)ccc3C2=O)cc1O
inactive: [4] 96 % of control | [5] 94 % of control | [6] 91 % of control

CC(=O)CC(C)=NCCN=C(C)CC(C)=O.[Pd]
inactive: dose: 3.13 mg/kg/injection, schedule: Q04DX003 (ip), vehicle: distilled water + Tween-80 93 % of control | dose: 6.25 mg/kg/injection, schedule: Q04DX003 (ip), vehicle: distilled water + Tween-80 108 % of control | dose: 12.5 mg/kg/injection, schedule: Q04DX003 (ip), vehicle: distilled water + Tween-80 100 % of control

CCN(CC)/C(N)=N\c1nc(C)c2cc(Cl)ccc2n1
inactive: [7] 103 % of control

NC(=S)NCc1ccccc1
inactive: [8] 89 % of control | [1] 105 % of control | [9] 91 % of control | [2] 101 % of control | [3] 112 % of control

COC(=O)C1=CNC=C(C(=O)OC)C1c1ccccc1Cl
inactive: [1] 95 % of control | [2] 97 % of control | [3] 89 % of control

C=CS(=O)(=O)CCCC
inactive: dose: 100.0 mg/kg/injection, schedule: Q01DX001 (ip), vehicle: Klucel (hydroxypropylcellulose) (HPC) 96 % of control | dose: 200.0 mg/kg/injection, schedule: Q01DX001 (ip), vehicle: Klucel (hydroxypropylcellulose) (HPC) 96 % of control | dose: 400.0 mg/kg/injection, schedule: Q01DX001 (ip), vehicle: Klucel (hydroxypropylcellulose) (HPC) 101 % of control

O=C(c1ccc(F)cc1)c1ccccc1Cl
inactive: [8] 102 % of control | [1] 105 % of control | [9] 97 % of control | [2] 98 % of control | [10] 97 % of control | [3] 98 % of control

N#CC1CCCC1=O (stereo unspecified)
inactive: dose: 5.0 mg/kg/injection, schedule: Q04DX003 (ip), vehicle: saline 101 % of control | dose: 10.0 mg/kg/injection, schedule: Q04DX003 (ip), vehicle: saline 101 % of control | dose: 20.0 mg/kg/injection, schedule: Q04DX003 (ip), vehicle: saline 106 % of control

CC(=O)N(N)c1ccccc1
inactive: [4] 105 % of control | [5] 109 % of control | [6] 105 % of control

Cc1cccc(-c2nn[nH]n2)n1
inactive: dose: 12.5 mg/kg/injection, schedule: Q01DX001 (ip), vehicle: saline with Tween-80 98 % of control | dose: 25.0 mg/kg/injection, schedule: Q01DX001 (ip), vehicle: saline with Tween-80 90 % of control | [7] 103 % of control | dose: 200.0 mg/kg/injection, schedule: Q01DX001 (ip), vehicle: saline 113 % of control | dose: 400.0 mg/kg/injection, schedule: Q01DX001 (ip), vehicle: saline 101 % of control

COc1cccc2c1C(=O)c1c(O)c3c(c(O)c1C2=O)CC(O)(/C(C)=N/NC(=O)CCCC(=O)N/N=C(\C)C1(O)Cc2c(O)c4c(c(O)c2C(OC2CC(N)C(O)C(C)O2)C1)C(=O)c1c(OC)cccc1C4=O)CC3OC1CC(N)C(O)C(C)O1 (stereo unspecified)
inactive: dose: 0.2 mg/kg/injection, schedule: Q01DX009 (ip), vehicle: water 101 % of control | dose: 0.39 mg/kg/injection, schedule: Q01DX009 (ip), vehicle: water 98 % of control | dose: 0.78 mg/kg/injection, schedule: Q01DX009 (ip), vehicle: water 109 % of control | dose: 1.56 mg/kg/injection, schedule: Q01DX009 (ip), vehicle: water 104 % of control | dose: 3.13 mg/kg/injection, schedule: Q01DX009 (ip), vehicle: water 114 % of control

O=C(O)c1ccc([N+](=O)[O-])cc1P(=O)(O)O
inactive: dose: 18.75 mg/kg/injection, schedule: Q01DX009 (ip), vehicle: saline 98 % of control | dose: 37.5 mg/kg/injection, schedule: Q01DX009 (ip), vehicle: saline 98 % of control | dose: 75.0 mg/kg/injection, schedule: Q01DX009 (ip), vehicle: saline 95 % of control

N#CC(C(=O)c1ccccc1)c1ccccc1 (stereo unspecified)
inactive: dose: 75.0 mg/kg/injection, schedule: Q01DX001 (ip), vehicle: other 100 % of control | dose: 150.0 mg/kg/injection, schedule: Q01DX001 (ip), vehicle: other 101 % of control | dose: 300.0 mg/kg/injection, schedule: Q01DX001 (ip), vehicle: other 106 % of control

CNCCSSCCN
inactive: dose: 50.0 mg/kg/injection, schedule: Q01DX009 (ip), vehicle: saline with Tween-80 95 % of control | dose: 50.0 mg/kg/injection, schedule: Q04DX003 (ip), vehicle: saline 98 % of control | [8] 93 % of control | dose: 100.0 mg/kg/injection, schedule: Q04DX003 (ip), vehicle: saline 93 % of control | dose: 200.0 mg/kg/injection, schedule: Q04DX003 (ip), vehicle: saline 98 % of control | dose: 400.0 mg/kg/injection, schedule: Q04DX003 (ip), vehicle: saline 98 % of control

S=c1[nH]c2ccccc2n1CCc1ccncc1
inactive: dose: 100.0 mg/kg/injection, schedule: Q#A X016 (ip), vehicle: saline 108 % of control | dose: 200.0 mg/kg/injection, schedule: Q#A X016 (ip), vehicle: saline 95 % of control | dose: 400.0 mg/kg/injection, schedule: Q## X016 (ip), vehicle: saline 102 % of control | dose: 400.0 mg/kg/injection, schedule: Q#A X016 (ip), vehicle: saline 98 % of control | dose: 800.0 mg/kg/injection, schedule: Q## X016 (ip), vehicle: saline 100 % of control | dose: 1600.0 mg/kg/injection, schedule: Q## X016 (ip), vehicle: saline 100 % of control

CN(Cc1ccccc1)N=Nc1ccc(C(=O)O)cc1
inactive: dose: 25.0 mg/kg/injection, schedule: Q01DX009 (ip), vehicle: other 105 % of control | dose: 50.0 mg/kg/injection, schedule: Q01DX009 (ip), vehicle: other 108 % of control | dose: 100.0 mg/kg/injection, schedule: Q01DX009 (ip), vehicle: other 101 % of control

CCC(CC)CN1CCSC1=S
inactive: [8] 101 % of control | [9] 101 % of control | [10] 96 % of control
